The text below walks through data of patent US7105521B2, “Eugenosedin-A based pharmacoligical agents” (Syn-Tech Chem & Pharm Co., Ltd., priority 2003, dated 2006).

“Also recorded” adds a separate entry of the source. Bounds are passed on as bounds.

The target of one assay is α1 receptors. Put plainly: Receptor binding, [3H]prazosin, rat cortex. Details: species or system Wistar rat. As for the experimental part: (§1) Drugs and chemicals. […] Eugenosedin-A synthesized in this laboratory was solvated in 50% absolute alcohol, 10% propylene glycol and further diluted with distilled water. All of the [^3H] ligand was purchased from New England Nuclear Corp. (Boston, Mass., U.S.A.).
(§2) Receptor binding studies. […] The homogenate was pressure filtered through muslin. Filtrate was centrifuged at 1000 g for 10 min. Supernatant was centrifuged at 10,000 g for 12 min at 4° C. The second supernatant was centrifuged at 30,000 g for 15 min at 4° C. The final pellet was re-suspended in assay buffer (75 mM Tris HCl, 25 mM MgCl2, pH 7.4). Protein content was determined by Bradford's method. Radioligand agents and membranes (200–300 μg) were incubated for 60 min at 25° C. with or without the addition of nonspecific binding agents, in a 75 mM Tris HCl buffer with 25 mM MgCl2, to make a final volume of 500 μl. In competitive-binding experiments, the competing agent was added directly to the incubation mixture. Incubation was terminated by addition of 1 ml of ice-cold assay buffer followed by immediate filtration through Whatman GF/C glass fiber filters supported on a 12-port filter manifold (Millipore). The filters were immediately washed 3 times with 5 ml of ice-cold assay buffer and dried in an oven at 60° C. for 2 hours before adding 5 ml of Triton-toluene-based scintillation fluid. Membrane-bound radioligand trapped in the filters was counted in a Beckman LS6500 scintillation system (Fullerton, Calif., U.S.A) with an efficiency of 45%. In each experiment, nonspecifically bound radioligand agents were determined by incubating membrane protein. Specific binding for each sample was obtained by deducting this value from the total binding of radioligand agents.

Another assay relates to α2-adrenergic receptors. In words: Clonidine-induced contraction of isolated rat thoracic aorta. The format is cell-based. Particulars: 10^−8, 10^−7, 10^−6 M. The source says: (§3) Isolation of rat thoracic aorta. Rat thoracic aorta was removed, cleaned of adhering fat and connective tissue and cut into 3–4 mm wide transverse rings.
Another assay deals with TNF-α. Put plainly: Plasma cytokine immunoreactivity after LPS: TNF-α. The format is in vivo, Wistar rats. As for the experimental part: (§4) Plasma cytokine immunoreactivity and blood glucose. Blood was collected from venous cannula, injected into ice-cold heparinized Eppendorf tubes and centrifuged at 1500 rpm for 10 min at 4° C. Plasma supernatant was stored at −70° C. until analyzed. Solid phase enzyme immunoassay that specifically detects murine IL-1β, IL-6, IFN-γ and TNF-α was used with a detection limit of >10 pg/ml (Endogen, U.S.A). Pretreatment with eugenosedin-A and other agents was performed 15 minutes before intravenous injection of LPS. Blood was collected from venous cannula. Blood glucose was measured with a glucose test strip (Glucotide, Bayer, U.S.A) at 1, 3 and 5 hours.

Assay [1] deals with T1, 5-HT2A receptor (Rattus norvegicus, UniProt P14842). In words: 5-HT-induced contraction of isolated rat thoracic aorta. The format is cell-based. Details: from tissue; host or cells: rat thoracic aorta rings.
Description: as §3

The target in the next assay is T2, β1-adrenoceptor (Rattus norvegicus, UniProt P18090).
T2 construct: isoprenaline-induced concentration-response curves in isolated rat left atria; from tissue; host or cells: isolated rat left atria
In words: Isoprenaline-induced positive inotropic effect in electrically stimulated rat left atria. Particulars: 10^−8, 10^−7, 10^−6 M, isolated rat left atria. In kind it is cell-based. Here is the method: Isolation of rat left atria. Rats of either sex weighing 350–500 g were sacrificed after mild anesthesia with ether, and their hearts were quickly excised. Left atria were dissected from the hearts and mounted in a 10 ml organ bath with one end fixed and the other end connected to a force displacement transducer (Grass, Model FT03). The experiments were carried out at 37° C. in a Krebs solution of the following composition (mM): NaCl 113, KCl 4.8, CaCl2 2.2, KH2PO4 1.2, MgCl2 1.2, NaHCO3 25, Dextrose 11.0; bubbled with a 95% O2+5% CO2 mixture. Atria were pre-stretched to a baseline tension of 0.5 g and equilibrated for 60 min in an aerated Krebs solution before starting experimental protocols. Atria were driven at 2-s intervals via two platinum electrodes on each side. An incubation time of 30 min was allowed for the test compound. Data were calculated as a percentage of the maximum contraction (Wu et al., 2001).

The next assay relates to IL-1β. Put plainly: Plasma cytokine immunoreactivity after LPS: IL-1β. In kind it is in vivo, Wistar rats. Particulars: 3 hours after LPS 10 mg kg^−1 i.v.; pretreatment (eugenosedin-A 1 mg kg^−1 i.v.). As for the experimental part:
as §4

For a further assay, the system named is IFN-γ. In words: Plasma cytokine immunoreactivity after LPS: IFN-γ. In kind it is in vivo, Wistar rats. Particulars: 3 hours after LPS 10 mg kg^−1 i.v.; pretreatment 1 mg kg^−1 i.v. Here is the method: as §4
In assay [2] the target is T1, 5-HT2A receptor. Put plainly: Receptor binding, [3H]ketanserin, rat cortex. Details: from tissue; host or cells: Wistar rat cortex membranes; species or system Wistar rat. As for the experimental part:
as §1, §2

The nature of assay [3]: Intravenous injection: BP and HR in pentobarbital-anesthetized rats. The format is in vivo, Wistar rats. As for the experimental part: Intravenous injection. The experiments were carried out as previously described (Wu B N. et al., Biochem. Pharmacol., 48:101–109, 1994). In brief, Wistar rats weighing 250–300 grams were anesthetized with pentobarbital sodium (50 mg kg^−1, i.p.). Following tracheal cannulation, systemic arterial BP and HR were recorded from the femoral artery by a pressure transducer (model P10EZ; Spectramed, Oxnard, Calif., U.S.A.) connected to a recorder (GOULD, Valley View, Ohio, Model P50). Body temperature was maintained at 37° C. by an electric heating pad. A femoral vein was cannulated for intravenous injection of drugs and LPS (10 mg kg^−1).

Assay [4] can be described thus: Micro-injection in NTS: BP and HR. The format is in vivo, rats. Particulars: NTS micro-injection, 0.03, 0.3 μmol, within 30 minutes after injection. The source says: Micro-injection in NTS. Rats were anesthetized and placed in a David-Kopf stereotaxic instrument. The cerebellum was exposed after removing the skin and occipital bone. […] At the end of experiments, the animals were sacrificed. The brain was removed and sectioned for histological confirmation of the drug application site.

Another assay deals with T3, β2 receptors (Rattus norvegicus, UniProt P10608).
T3 construct: with [^3H]CGP-12177 on β2 receptors in rat lung; from tissue; host or cells: Wistar rat lung membranes
Put plainly: Receptor binding, [3H]CGP-12177, rat lung. Further details: species or system Wistar rat. As for the experimental part: as §1
as §2, with “Incubation was terminated by addition of 1 ml of ice-cold assay buffer followed by immediate filtration through Whatman GF/C glass fiber filters supported on a 12-port filter manifold (Millipore). The filters were immediately washed 3 times with 5 ml of ice-cold assay buffer and dried in an oven at 60° C. for 2 hours before adding 5 ml of Triton-toluene-based scintillation fluid.” left out, “Specific binding for each sample was obtained by deducting this value from the total binding of radioligand agents.” left out

Another assay concerns the target α2 receptors. In words: Receptor binding, [3H]yohimbine, rat cortex. Further details: species or system Wistar rat. As for the experimental part: as §1, §2
[5] abbreviates: i.v., pentobarbital-anesthetized rats.

T1 sequence (P14842 whole entry): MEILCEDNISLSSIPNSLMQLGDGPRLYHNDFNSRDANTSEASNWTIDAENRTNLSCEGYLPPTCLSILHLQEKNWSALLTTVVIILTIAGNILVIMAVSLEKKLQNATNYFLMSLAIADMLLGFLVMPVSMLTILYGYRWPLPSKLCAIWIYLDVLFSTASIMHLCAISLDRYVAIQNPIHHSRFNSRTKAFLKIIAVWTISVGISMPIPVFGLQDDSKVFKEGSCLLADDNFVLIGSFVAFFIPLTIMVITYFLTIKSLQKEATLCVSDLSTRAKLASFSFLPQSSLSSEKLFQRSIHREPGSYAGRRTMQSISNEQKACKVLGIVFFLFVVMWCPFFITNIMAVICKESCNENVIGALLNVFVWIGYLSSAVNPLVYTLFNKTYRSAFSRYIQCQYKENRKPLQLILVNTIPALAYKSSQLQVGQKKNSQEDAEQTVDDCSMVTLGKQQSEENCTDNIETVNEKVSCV
T2 sequence (P18090 whole entry): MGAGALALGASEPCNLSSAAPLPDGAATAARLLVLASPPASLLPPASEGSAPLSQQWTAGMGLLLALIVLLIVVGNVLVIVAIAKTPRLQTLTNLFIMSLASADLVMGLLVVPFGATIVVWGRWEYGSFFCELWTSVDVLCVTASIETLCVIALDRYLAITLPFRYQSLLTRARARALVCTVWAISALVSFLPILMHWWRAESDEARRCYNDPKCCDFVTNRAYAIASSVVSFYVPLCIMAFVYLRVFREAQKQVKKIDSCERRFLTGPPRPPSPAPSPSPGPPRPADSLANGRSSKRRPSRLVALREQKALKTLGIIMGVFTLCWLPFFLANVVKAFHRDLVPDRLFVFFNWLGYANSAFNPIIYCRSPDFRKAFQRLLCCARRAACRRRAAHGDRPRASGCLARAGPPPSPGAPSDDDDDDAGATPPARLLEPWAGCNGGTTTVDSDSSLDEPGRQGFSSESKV
T3 sequence (P10608 whole entry): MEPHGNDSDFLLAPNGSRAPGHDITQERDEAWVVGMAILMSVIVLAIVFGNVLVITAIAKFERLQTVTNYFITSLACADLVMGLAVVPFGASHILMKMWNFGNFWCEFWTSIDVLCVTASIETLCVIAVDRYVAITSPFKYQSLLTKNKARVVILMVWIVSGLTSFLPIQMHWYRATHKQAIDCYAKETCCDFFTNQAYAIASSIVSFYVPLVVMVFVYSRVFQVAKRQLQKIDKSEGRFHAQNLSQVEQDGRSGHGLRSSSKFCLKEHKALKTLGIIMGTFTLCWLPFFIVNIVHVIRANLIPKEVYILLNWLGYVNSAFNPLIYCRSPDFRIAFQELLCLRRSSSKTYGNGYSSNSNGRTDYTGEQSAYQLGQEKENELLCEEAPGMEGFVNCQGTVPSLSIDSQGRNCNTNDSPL

As to `CC=Cc1ccc(OCC(O)CN2CCN(c3ccccc3Cl)CC2)c(OC)c1` (stereo not drawn) [eugenosedin-A], on α1 receptors, the Ki (as a rule, the equilibrium dissociation constant of an inhibitor or competing ligand from its target) was found to be 142 nM; the “order of α1 receptor binding potency” value was “prazosin >ketanserin >eugenosedin-A >methylsergide, propranolol and 5-HT”. Besides, in the assay on α2-adrenergic receptors, the “cumulative clonidine-induced contractile activities” value is “competitively inhibited”. In the assay on TNF-α (3 hours after LPS 10 mg kg^−1 i.v., pretreatment (eugenosedin-A 1 mg kg^−1 i.v.)), the “LPS-induced increase in TNF-α” value is given as “significantly inhibited”. In the assay with TNF-α (5 hours after LPS 10 mg kg^−1 i.v., pretreatment), the “LPS-induced increase in TNF-α” value is on record as “significantly reduced”. The Kb on 5-HT2A receptor [1] is 2.09 nM. Moreover, the 5-HT-induced contractile activities entry on 5-HT2A receptor [1] (10^−8, 10^−7, 10^−6 M, isolated rat thoracic aorta) is given as “concentration-dependently inhibited”. Also, on β1-adrenoceptor, the “cumulative isoprenaline-induced positive inotropic effects” value is “concentration-dependently inhibited”. Also, the “LPS-induced increase in IL-1β” value in the assay with IL-1β was “significantly inhibited”. Further, the “LPS-induced increase in IFN-γ” value in the assay with IFN-γ was “significantly inhibited”. For the same molecule, on 5-HT2A receptor [2], the “binding affinity for 5-HT2A receptors” value was “higher binding affinity than other β-adrenergic antagonists; also recorded: higher binding affinity than propranolol” and the “order of potency on 5-HT2A receptors” value is given as “ketanserin >methylsergide >eugenosedin-A >5-HT >propranolol >prazosin”. Besides, the Ki on 5-HT2A receptor [2] ([3H]ketanserin, rat cortex) was 33.3 nM. Besides, the “effect on arterial blood pressure after acute intravenous injection” value in assay [3] (0.1, 0.5, 1.0 mg kg^−1 i.v., pentobarbital-anesthetized Wistar rats) is listed as “mild arterial hypotension”. In assay [3] (i.v., pentobarbital-anesthetized Wistar rats), the “depressor effect compared with trazodone and ketanserin” value is “less than that of trazodone and ketanserin”. In addition, in assay [3] (setting [5]), the “mean BP and HR after intravenous administration” value was “dose-dependent decrease in mean BP and HR”; the “phenylephrine- and isoprenaline-induced changes in BP and HR” value was “inhibited phenylephrine- and isoprenaline-induced changes in BP and HR”. Further, the “pressor response and HR” value in assay [4] is “mild, but significant, pressor responses and increased the HR”. The molecule further displayed an inhibitory constant (Ki) at β2 receptors greater than 10000 nM. Also, on α2 receptors, the affinity corresponds to a Ki of 1390 nM; the “order of α2 receptor binding potency” value was “prazosin >eugenosedin-A >ketanserin >methylsergide >propranolol and 5-HT”.
